We go through 16 compounds from ChEMBL document CHEMBL4613266, “Discovery and Structure Relationships of Salicylanilide Derivatives as Potent, Non-acidic P2X1 Receptor Antagonists” (J Med Chem, 2020).

Type in all cases: cell-based
Assay [1] has as its target T1, P2X purinoceptor 1 (Homo sapiens) (UniProt P51575).
T1 sequence (whole entry): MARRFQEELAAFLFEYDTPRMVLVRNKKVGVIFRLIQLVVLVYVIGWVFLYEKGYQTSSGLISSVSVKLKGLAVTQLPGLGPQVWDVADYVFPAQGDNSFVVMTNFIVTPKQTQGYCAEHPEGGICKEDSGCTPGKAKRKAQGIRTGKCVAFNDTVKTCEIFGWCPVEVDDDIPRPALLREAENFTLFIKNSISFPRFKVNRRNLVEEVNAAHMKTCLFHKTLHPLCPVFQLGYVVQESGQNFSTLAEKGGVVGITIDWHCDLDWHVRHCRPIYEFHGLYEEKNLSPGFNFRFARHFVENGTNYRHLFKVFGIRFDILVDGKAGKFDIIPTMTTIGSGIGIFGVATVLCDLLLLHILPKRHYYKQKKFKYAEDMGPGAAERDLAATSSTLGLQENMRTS
Description: Antagonist activity at non-desensitizing human P2X1 receptor ( P2X2/P2X1 chimera) expressed in human 1321N1 cells assessed as inhibition of ATP-induced calcium influx at 10 uM pre-incubated for 30 mins before ATP stimulation by FLIPR assay relative to control.

Assay [2] deals with T1, P2X purinoceptor 1 (Homo sapiens). The assay is described as follows: Antagonist activity P2X1 receptor in human platelets assessed as inhibition of ADP-induced platelet aggregation pre-incubated for 30 mins before ADP stimulation by aggregometry relative to control.
In assay [3] the target is P2X purinoceptor 1 (Homo sapiens, UniProt P51575). The assay is described as follows: Antagonist activity at non-desensitizing human P2X1 receptor ( P2X2/P2X1 chimera) expressed in human 1321N1 cells assessed as inhibition of ATP-induced calcium influx pre-incubated for 30 mins before ATP stimulation by FLIPR assay relative to control.
Assay [4] addresses T1, P2X purinoceptor 1 (Homo sapiens). The assay is described as follows: Antagonist activity at non-desensitizing human P2X1 receptor ( P2X2/P2X1 chimera) expressed in human 1321N1 cells assessed as inhibition of ATP-induced calcium influx at 100 uM pre-incubated for 30 mins before ATP stimulation by FLIPR assay relative to control.
For assay [5], the target named is T2, P2X purinoceptor 7 (Homo sapiens, UniProt Q99572).
T2 sequence (Q99572 whole entry): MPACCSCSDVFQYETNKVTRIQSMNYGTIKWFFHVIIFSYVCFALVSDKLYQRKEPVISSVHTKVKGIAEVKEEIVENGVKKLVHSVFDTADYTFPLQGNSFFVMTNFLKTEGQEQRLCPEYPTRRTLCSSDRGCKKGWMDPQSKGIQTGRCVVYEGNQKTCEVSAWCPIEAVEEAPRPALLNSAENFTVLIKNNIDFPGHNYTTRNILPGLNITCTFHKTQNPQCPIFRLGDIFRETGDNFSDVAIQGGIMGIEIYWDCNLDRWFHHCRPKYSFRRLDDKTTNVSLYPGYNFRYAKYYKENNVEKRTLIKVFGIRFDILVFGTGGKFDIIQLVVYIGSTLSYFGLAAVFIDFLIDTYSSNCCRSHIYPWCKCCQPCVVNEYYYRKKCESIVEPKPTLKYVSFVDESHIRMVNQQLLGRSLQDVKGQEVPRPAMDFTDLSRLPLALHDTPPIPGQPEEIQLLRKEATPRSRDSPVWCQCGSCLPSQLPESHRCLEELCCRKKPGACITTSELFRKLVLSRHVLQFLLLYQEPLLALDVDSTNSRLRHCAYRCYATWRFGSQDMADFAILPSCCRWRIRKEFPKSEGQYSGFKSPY
The assay is described as follows: Antagonist activity at human P2X7 receptor expressed in human 1321N1 cells assessed as inhibition of ATP-induced cytosolic calcium influx preincubated for 30 mins followed by ATP addition by Fluo-4 AM dye-based fluorescence assay.

The target in assay [6] is T3, P2X purinoceptor 2 (Homo sapiens, UniProt Q9UBL9).
T3 sequence (Q9UBL9 whole entry): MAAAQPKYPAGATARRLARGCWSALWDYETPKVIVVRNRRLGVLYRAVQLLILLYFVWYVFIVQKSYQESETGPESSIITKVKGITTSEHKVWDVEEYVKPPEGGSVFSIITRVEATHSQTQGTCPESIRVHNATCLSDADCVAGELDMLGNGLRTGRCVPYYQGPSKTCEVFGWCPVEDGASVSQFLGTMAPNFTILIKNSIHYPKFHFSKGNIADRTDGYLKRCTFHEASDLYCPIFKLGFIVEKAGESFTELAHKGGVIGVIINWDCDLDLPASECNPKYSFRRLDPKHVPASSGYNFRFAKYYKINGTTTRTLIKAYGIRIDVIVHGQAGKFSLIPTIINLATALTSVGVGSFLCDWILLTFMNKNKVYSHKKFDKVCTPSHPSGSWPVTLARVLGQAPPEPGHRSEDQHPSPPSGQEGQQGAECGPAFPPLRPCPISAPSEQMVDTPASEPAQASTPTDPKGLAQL
Description: Antagonist activity at human P2X2 receptor expressed in human 1321N1 cells assessed as inhibition of ATP-induced cytosolic calcium influx preincubated for 30 mins followed by ATP addition by Fluo-4 AM dye-based fluorescence assay.

The target in assay [7] is T4, P2X purinoceptor 2 (Homo sapiens) (UniProt Q9UBL9).
T4 sequence (whole entry): T3 sequence (Q9UBL9 whole entry)
The assay is described as follows: Antagonist activity at human P2X2 receptor expressed in human 1321N1 cells assessed as inhibition of ATP-induced cytosolic calcium influx at 10 uM preincubated for 30 mins followed by ATP addition by Fluo-4 AM dye-based fluorescence assay relative to control.

The target in assay [8] is T5, P2X purinoceptor 3 (Homo sapiens) (UniProt P56373).
T5 sequence (whole entry): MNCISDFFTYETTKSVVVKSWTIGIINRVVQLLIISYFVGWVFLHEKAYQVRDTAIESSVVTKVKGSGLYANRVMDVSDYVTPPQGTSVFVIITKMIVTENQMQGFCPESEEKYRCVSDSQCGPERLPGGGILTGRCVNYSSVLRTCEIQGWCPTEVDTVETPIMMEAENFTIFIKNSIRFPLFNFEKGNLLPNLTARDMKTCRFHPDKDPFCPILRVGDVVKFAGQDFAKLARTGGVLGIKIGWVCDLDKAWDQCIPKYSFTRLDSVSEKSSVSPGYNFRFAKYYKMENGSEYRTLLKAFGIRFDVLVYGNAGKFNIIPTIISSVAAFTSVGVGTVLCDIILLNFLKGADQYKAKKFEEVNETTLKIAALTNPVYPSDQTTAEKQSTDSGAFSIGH
The assay is described as follows: Antagonist activity at human P2X3 receptor expressed in human 1321N1 cells assessed as inhibition of ATP-induced cytosolic calcium influx at 10 uM preincubated for 30 mins followed by ATP addition by Fluo-4 AM dye-based fluorescence assay relative to control.

Assay [9] concerns the target T6, P2X purinoceptor 4 (Homo sapiens, UniProt Q99571).
T6 sequence (Q99571 whole entry): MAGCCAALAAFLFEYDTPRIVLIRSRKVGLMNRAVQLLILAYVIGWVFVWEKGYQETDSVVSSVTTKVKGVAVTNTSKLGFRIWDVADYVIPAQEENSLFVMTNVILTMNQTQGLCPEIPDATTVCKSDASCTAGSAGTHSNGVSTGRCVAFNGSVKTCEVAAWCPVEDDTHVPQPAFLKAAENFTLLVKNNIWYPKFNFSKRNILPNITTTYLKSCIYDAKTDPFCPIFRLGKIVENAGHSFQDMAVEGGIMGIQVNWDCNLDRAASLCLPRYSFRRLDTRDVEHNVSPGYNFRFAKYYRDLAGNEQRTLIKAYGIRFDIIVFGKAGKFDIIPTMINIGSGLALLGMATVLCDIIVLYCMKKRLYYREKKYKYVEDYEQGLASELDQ
The assay is described as follows: Antagonist activity at human P2X4 receptor expressed in human 1321N1 cells assessed as inhibition of ATP-induced cytosolic calcium influx preincubated for 30 mins followed by ATP addition by Fluo-4 AM dye-based fluorescence assay.

Assay [10] concerns the target T7, P2X purinoceptor 3 (Homo sapiens, UniProt P56373).
T7 sequence (P56373 whole entry): T5 sequence (whole entry)
Description: Antagonist activity at human P2X3 receptor expressed in human 1321N1 cells assessed as inhibition of ATP-induced cytosolic calcium influx preincubated for 30 mins followed by ATP addition by Fluo-4 AM dye-based fluorescence assay.

Assay [11] addresses T1, P2X purinoceptor 1 (Homo sapiens). The assay is described as follows: Antagonist activity P2X1 receptor in Apyrase pre-treated human platelets assessed as inhibition of TRAP6-induced platelet aggregation pre-incubated for 30 mins before TRAP6 stimulation by aggregometry relative to control.
The target is the same in assay [12]. Description: Antagonist activity at non-desensitizing human P2X1 receptor ( P2X2/P2X1 chimera) expressed in human 1321N1 cells assessed as inhibition of ATP-induced calcium influx at 1 uM pre-incubated for 30 mins before ATP stimulation by FLIPR assay relative to control.

As usually defined, the inhibition is the change of the read-out against control, counted positive when it falls. Usually IC50 stands for the midpoint of a concentration-inhibition curve. As to `O=C(Nc1cc(C(F)(F)F)cc(C(F)(F)F)c1)c1ccccc1`, the values for the inhibition in assay [1] and in [2] were 79% and 47%, respectively. Moreover, the IC50 in assay [3] came to 2220 nM.
As to `O=C(Nc1cccc(Br)c1)c1ccccc1O`, in assay [3], the IC50 came to 2690 nM. Besides, in assay [4], the inhibition turned out to be 98%.
On to `O=C(Nc1cc(Cl)cc(Cl)c1)c1cc(Cl)ccc1O`, for which the inhibition in assay [1] was 56%; in assay [2] it was 26%; in assay [7], -5%; in assay [8], 5%; in assay [11], 13%. Also, the IC50 was 70.4 nM in [5]; 29.3 nM in assay [3]; more than 10000 nM in assay [6]; 712 nM in [9]; more than 10000 nM in [10].
In the case of `N#Cc1cccc(NC(=O)c2cc(Cl)ccc2O)c1`, the IC50 in [3] is 522 nM. Besides, the inhibition in [12] is 60%.
Consider `O=C(Nc1cccc(OC(F)(F)F)c1)c1cc(Cl)ccc1O`, for which the IC50 in [3] was 7620 nM. Besides, the inhibition in assay [4] was determined as 100%.
The like results for `O=C(Nc1ccc(Cl)c([N+](=O)[O-])c1)c1cc(Cl)ccc1O` were, in that order, 13500 nM and 80%.
Regarding `O=C(Nc1cc([N+](=O)[O-])cc(C(F)(F)F)c1)c1cccc(Cl)c1O`, the IC50 in assay [3] was determined as 219 nM. The inhibition in assay [4] stood at 83%.
For the compound `O=C(Nc1cc(C(F)(F)F)cc(C(F)(F)F)c1)c1ccccc1O`, the inhibition amounted to 79% in [1], 15% in assay [7] and 30% in assay [8]. The concentration for half-maximal inhibition (IC50) in assay [5] was 315 nM; in assay [3] it was 76.9 nM; in [6] it was more than 10000 nM; in [9], 155 nM; in assay [10], more than 10000 nM.
Turning to `O=S(=O)(Nc1cc(C(F)(F)F)cc(C(F)(F)F)c1)c1cc(Cl)ccc1O`, the inhibition in [1] came to 80%; in assay [2], 27%; in assay [11], 8%. Besides, the IC50 in assay [3] turned out to be 439 nM.
Take `O=C(Nc1cccc(C(F)(F)F)c1)c1cc(Cl)ccc1O`: the inhibition in assay [1] stood at 75%; in assay [7], 5%; in assay [8] it was 4%. In addition, the IC50 in assay [5] was 6320 nM; in [3], 91 nM; in assay [6] it was more than 10000 nM; in [9], 537 nM; in assay [10] it was more than 10000 nM.
`O=C(Nc1cccc(Cl)c1)c1cc(Cl)ccc1O`: the inhibition worked out at 64% in assay [1], 0% in assay [7] and 3% in assay [8]. For the same compound, the IC50 in assay [5] is 599 nM; in assay [3], 75.6 nM; in assay [6], more than 10000 nM; in [9] it was 135 nM; in assay [10], more than 10000 nM.
Turning to `O=C(Nc1cc([N+](=O)[O-])cc(C(F)(F)F)c1)c1cc(Cl)ccc1O`, the values for the inhibition in assay [1], in [7] and in assay [8] were 81%, 5% and 16%, respectively. Also, the IC50 in [5] was 143 nM; in [3] it was 31.6 nM; in assay [6] it was more than 10000 nM; in assay [9] it was 42.6 nM; in assay [10] it was more than 10000 nM.
`O=C(Nc1cc(C(F)(F)F)cc(C(F)(F)F)c1)N1CCCc2cccc(O)c21`: the half-inhibitory concentration (IC50) in [3] came out at 10400 nM. In addition, the inhibition in assay [4] was 77%.
On to `O=C(Nc1cc(C(F)(F)F)cc(C(F)(F)F)c1)c1ccc(Cl)cc1O`, for which the values for the inhibition in assay [1], in assay [7] and in [8] were 59%, -5% and 2%, respectively. Also, the IC50 in assay [5] was 196 nM; in [3], 23.1 nM; in assay [6], more than 10000 nM; in assay [9], 209 nM; in [10], more than 10000 nM.
As to `COc1ccc(Cl)cc1C(=O)Nc1cc(C(F)(F)F)cc(C(F)(F)F)c1`, the half-inhibitory concentration (IC50) in assay [3] was more than 1000 nM. Also, in assay [12], the inhibition turned out to be 17%.
As to `O=C(Nc1cc(C(F)(F)F)cc(C(F)(F)F)c1)c1cccc(Cl)c1O`, the inhibition in assay [1] came out at 83%; in assay [7], 13%; in assay [8], 28%. Also, the IC50 in [5] is 177 nM; in assay [3] it was 58 nM; in [6] it was more than 10000 nM; in assay [9] it was 48.8 nM; in [10], more than 10000 nM.
